Experimental data: patent publication EP4679096A1, “BIOMARKERS AND METHOD FOR ESTIMATING BRAIN NEURODEGENERATIVE CONDITION” (SHIMADZU CORPORATION, priority 2023, dated 2024)
Peptide text beside a SMILES is read from it.

Test: Effect of plasma handling (thawed, about 2 hours at room temperature, re-frozen: RT2h-FT1) on NI of Ng peptides
Format: in vitro ADME, human
Details: FIG. 1
Description: Among the 161 samples, samples obtained by thawing cryopreserved samples, placing the samples at room temperature for about 2 hours, and then re-freezing the samples are also included. In order to investigate the influence of this process on the measured value of the Ng peptide, the Ng peptide to be analyzed was evaluated using a part of the sample. In the measurement of the sample that was thawed, left at room temperature for about 2 hours, and then re-frozen (sample under the RT2h-FT1 condition), the above [purification] [mass spectrometry] was performed except that SIL-Ng50-78 was used as the internal standard peptide, and the internal standard peptide was diluted with the first buffer. The above [purification] [mass spectrometry] was also performed on the samples not subjected to the RT2h-FT1 process (samples under control conditions). For these, data processing was performed using data obtained by simultaneously measuring SIL-Ng50-78 and SIL-Ng45-75 and SIL-Ng24-75 such that the measured value of the RT2h-FT1 condition normalized with SIL-Ng50-78 was NI normalized with SIL-Ng45-75 and SIL-Ng24-75.
From this, it can be seen that the decomposition of the Ng peptide proceeds by the time for which the plasma is stored in a thawed state and/or freeze-thawing. […]

| SMILES | change of NI under the RT2h-FT1 condition compared with the Control condition (decomposition in plasma) |
| --- | --- |
| CC(C)[C@H](NC(=O)CNC(=O)[C@H](C)NC(=O)CNC(=O)CNC(=O)[C@@H]1CCCN1C(=O)CNC(=O)CNC(=O)[C@@H]1CCCN1C(=O)CNC(=O)[C@@H]1CCCN1C(=O)CNC(=O)[C@H](CCCCN)NC(=O)[C@H](CCCNC(=N)N)NC(=O)CNC(=O)[C@H](CCCNC(=N)N)NC(=O)[C@@H](N)CCC(=O)O)C(=O)N[C@@H](C)C(=O)N[C@@H](CCCNC(=N)N)C(=O)NCC(=O)NCC(=O)N[C@@H](C)C(=O)NCC(=O)NCC(=O)NCC(=O)N1CCC[C@H]1C(=O)O [Ng50-75] (H-ERGRKGPGPGGPGGAGVARGGAGGGP-OH) | smaller decrease width due to decomposition than the other Ng peptides |
| CC[C@H](C)[C@H](NC(=O)[C@@H](N)CCCCN)C(=O)N[C@@H](CCCCN)C(=O)N[C@@H](CO)C(=O)NCC(=O)N[C@@H](CCC(=O)O)C(=O)N[C@@H](CCCNC(=N)N)C(=O)NCC(=O)N[C@@H](CCCNC(=N)N)C(=O)N[C@@H](CCCCN)C(=O)NCC(=O)N1CCC[C@H]1C(=O)NCC(=O)N1CCC[C@H]1C(=O)NCC(=O)NCC(=O)N1CCC[C@H]1C(=O)NCC(=O)NCC(=O)N[C@@H](C)C(=O)NCC(=O)N[C@H](C(=O)N[C@@H](C)C(=O)N[C@@H](CCCNC(=N)N)C(=O)NCC(=O)NCC(=O)N[C@@H](C)C(=O)NCC(=O)NCC(=O)NCC(=O)N1CCC[C@H]1C(=O)O)C(C)C [Ng45-75] (H-KIKSGERGRKGPGPGGPGGAGVARGGAGGGP-OH) | smaller decrease width due to decomposition than the other Ng peptides |
